From BindingDB's records for doi:10.1021/jm9701583 (R.W. Johnson Pharmaceutical Research Institute, 1997)

Target: DNA gyrase (Escherichia coli)
Assay: Inhibition of supercoiling activity of DNA gyrase in Escherichia coli

CC(c1ccc2c(c1)Nc1ccccc1S2)N(O)C(=O)c1ccccc1-c1ccccc1C(=O)O (stereo unspecified)
IC50: 1360 µM

COc1cc(C(C)N(O)C(=O)c2ccccc2-c2ccccc2C(=O)O)cc(OC)c1OC (stereo unspecified)
IC50: > 1100 µM

CC(c1ccc2oc(-c3ccccc3)cc2c1)N(O)C(=O)c1ccccc1-c1ccccc1C(=O)O (stereo unspecified)
IC50: 121 µM

CC(c1ccc2c(ccc3ccccc32)c1)N(O)C(=O)c1ccccc1-c1ccccc1C(=O)O (stereo unspecified)
IC50: 205 µM

CC(c1ccccc1)N(O)C(=O)c1ccccc1-c1ccccc1C(=O)O (stereo unspecified)
IC50: > 1380 µM

CC(c1ccc(N2CCN(c3ccccc3)CC2)cc1)N(O)C(=O)c1ccccc1-c1ccccc1C(=O)O (stereo unspecified)
IC50: > 958 µM
